Calls of active or inactive are those of the source.
How the values were obtained:
[1] = HEp-2 cell cytotoxicity, dose response, cytotoxicity control for RSV inhibitor project, HTS (AID 2410); format: functional; conditions: human respiratory syncytial virus
SN12K1 = assay: cells; format: functional; conditions: Homo sapiens
P388 = assay: cells; format: functional; conditions: Mus musculus;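 further: compound exposure lasted 48 hours before growth was measured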
[2] = microbe, parasite or virus in culture; format: functional; conditions: Mycobacterium tuberculosis
[3] = target: T1, RNA-binding protein pos-1 (Caenorhabditis elegans, UniProt G5EF15); assay: inhibitors of POS-1/mex-3 RNA binding, dose response, biochemical, fluorescence polarization (AID 1964);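 further: purified POS-1 fused to maltose binding protein made in E. coli; potency of compounds blocking POS-1 binding to fluorescent RNA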
T1 sequence (G5EF15 whole entry): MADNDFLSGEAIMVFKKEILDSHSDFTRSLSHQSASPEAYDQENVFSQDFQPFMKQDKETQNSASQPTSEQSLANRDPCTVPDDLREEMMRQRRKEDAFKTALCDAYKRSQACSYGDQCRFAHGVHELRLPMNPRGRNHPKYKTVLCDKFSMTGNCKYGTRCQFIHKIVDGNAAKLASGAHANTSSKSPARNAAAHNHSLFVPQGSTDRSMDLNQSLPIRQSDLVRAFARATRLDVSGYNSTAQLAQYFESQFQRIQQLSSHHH

[4] = target: T2, Zinc finger protein mex-5 (Caenorhabditis elegans, UniProt Q9XUB2); assay: MEX-5/TCR-2 RNA interaction inhibitors, dose response, biochemical, C. elegans, fluorescence polarization (AID 1960)
T2 sequence (Q9XUB2 whole entry): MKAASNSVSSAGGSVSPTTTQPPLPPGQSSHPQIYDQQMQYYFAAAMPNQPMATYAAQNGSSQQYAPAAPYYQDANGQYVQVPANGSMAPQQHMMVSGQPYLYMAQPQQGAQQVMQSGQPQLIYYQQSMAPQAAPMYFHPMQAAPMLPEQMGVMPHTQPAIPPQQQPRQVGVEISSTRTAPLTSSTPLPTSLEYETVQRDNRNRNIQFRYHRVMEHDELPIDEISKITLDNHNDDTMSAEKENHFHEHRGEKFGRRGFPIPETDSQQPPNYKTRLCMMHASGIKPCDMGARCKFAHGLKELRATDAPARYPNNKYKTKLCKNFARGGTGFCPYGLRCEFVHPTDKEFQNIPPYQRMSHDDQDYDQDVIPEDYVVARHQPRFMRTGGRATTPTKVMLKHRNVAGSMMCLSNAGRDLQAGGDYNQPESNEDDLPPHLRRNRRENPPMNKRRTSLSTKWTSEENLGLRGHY

[5] = inhibitors of intracellular T. cruzi replication, confirmation, NIH3T3 host cells, beta-gal luminescence (AID 2044); format: functional, cell-based;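 further: intracellular parasites grown in NIH/3T3 mouse fibroblasts as host cells; luminescent beta-galactosidase reporter signal from transgenic T. cruzi replicating inside host cells; inhibitors lower the luminescence signal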
[6] = cytotoxicity toward NIH3T3 fibroblasts, dose response, counter-screen, cell-based, ATP luminescence, mouse fibroblasts (AID 2010); format: functional;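 further: cells exposed to compound for about 90 hours before reading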
[7] = target: T3, Replicative DNA helicase DnaB (Mycobacterium tuberculosis, UniProt P9WMR3); assay: DnaB intein splicing inhibitors, dose response, biochemical, cell-free fluorescence (AID 449749); format: functional
T3 sequence (P9WMR3 whole entry): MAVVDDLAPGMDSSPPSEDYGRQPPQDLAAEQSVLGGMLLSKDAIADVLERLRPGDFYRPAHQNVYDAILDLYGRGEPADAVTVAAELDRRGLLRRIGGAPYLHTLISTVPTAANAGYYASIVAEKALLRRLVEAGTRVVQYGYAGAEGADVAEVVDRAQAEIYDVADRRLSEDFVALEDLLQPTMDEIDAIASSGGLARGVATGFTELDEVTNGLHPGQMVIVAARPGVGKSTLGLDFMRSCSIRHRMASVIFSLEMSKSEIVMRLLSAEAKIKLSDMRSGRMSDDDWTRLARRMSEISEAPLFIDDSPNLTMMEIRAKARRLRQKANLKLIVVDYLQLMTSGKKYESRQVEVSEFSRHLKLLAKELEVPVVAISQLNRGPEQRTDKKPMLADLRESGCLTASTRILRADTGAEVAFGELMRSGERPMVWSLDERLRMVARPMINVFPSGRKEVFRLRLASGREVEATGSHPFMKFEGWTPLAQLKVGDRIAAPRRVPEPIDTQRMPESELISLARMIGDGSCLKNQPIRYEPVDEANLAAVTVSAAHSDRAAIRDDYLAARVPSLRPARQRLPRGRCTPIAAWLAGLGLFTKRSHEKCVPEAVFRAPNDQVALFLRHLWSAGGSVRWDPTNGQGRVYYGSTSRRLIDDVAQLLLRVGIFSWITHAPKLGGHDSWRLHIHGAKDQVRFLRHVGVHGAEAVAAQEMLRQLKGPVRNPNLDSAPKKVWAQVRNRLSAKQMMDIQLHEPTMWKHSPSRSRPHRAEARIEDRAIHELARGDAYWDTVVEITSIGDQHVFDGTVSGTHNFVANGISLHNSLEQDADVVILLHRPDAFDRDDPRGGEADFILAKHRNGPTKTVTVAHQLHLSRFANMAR

Protein RecA = target: T4, Protein RecA (Mycobacterium tuberculosis, UniProt P9WHJ3); assay: Fluorescence Cell-Free Homogeneous Dose Retest to Identify Inhibitors of RecA-Intein Splicing Activity. [Related pubchem assays (depositor defined):AID2097, AID2223, AID489010, AID492950]; format: functional
T4 sequence (P9WHJ3 whole entry): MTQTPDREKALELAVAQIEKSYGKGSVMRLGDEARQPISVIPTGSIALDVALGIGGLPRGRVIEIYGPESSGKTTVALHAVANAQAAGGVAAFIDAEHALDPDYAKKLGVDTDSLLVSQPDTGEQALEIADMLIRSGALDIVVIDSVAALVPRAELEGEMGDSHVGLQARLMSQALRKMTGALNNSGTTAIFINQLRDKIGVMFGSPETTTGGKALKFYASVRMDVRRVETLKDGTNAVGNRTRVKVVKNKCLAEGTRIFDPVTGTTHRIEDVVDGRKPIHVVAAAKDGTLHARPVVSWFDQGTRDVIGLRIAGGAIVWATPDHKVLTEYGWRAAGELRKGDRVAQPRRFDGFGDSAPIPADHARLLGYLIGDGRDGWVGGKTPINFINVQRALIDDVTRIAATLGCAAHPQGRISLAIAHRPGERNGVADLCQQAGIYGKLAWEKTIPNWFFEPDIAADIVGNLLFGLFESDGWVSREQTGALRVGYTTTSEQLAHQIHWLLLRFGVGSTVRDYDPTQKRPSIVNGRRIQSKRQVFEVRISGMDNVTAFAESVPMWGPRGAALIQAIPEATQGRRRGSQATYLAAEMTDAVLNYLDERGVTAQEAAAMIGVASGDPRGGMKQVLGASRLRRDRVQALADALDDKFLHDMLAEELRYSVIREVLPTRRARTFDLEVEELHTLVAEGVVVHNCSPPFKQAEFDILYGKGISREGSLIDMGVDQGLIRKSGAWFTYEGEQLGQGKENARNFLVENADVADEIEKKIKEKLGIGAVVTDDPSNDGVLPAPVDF

[8] = target: T5, Corticotropin-releasing factor receptor 2/Corticotropin-releasing factor-binding protein (Homo sapiens, UniProt P24387+Q13324); assay: activators of CRF receptor 2 with binding protein – uHTS hits, confirmation (AID 602473); format: functional; conditions: read-out: EC50_Mean
T5 sequence (Q13324 whole entry): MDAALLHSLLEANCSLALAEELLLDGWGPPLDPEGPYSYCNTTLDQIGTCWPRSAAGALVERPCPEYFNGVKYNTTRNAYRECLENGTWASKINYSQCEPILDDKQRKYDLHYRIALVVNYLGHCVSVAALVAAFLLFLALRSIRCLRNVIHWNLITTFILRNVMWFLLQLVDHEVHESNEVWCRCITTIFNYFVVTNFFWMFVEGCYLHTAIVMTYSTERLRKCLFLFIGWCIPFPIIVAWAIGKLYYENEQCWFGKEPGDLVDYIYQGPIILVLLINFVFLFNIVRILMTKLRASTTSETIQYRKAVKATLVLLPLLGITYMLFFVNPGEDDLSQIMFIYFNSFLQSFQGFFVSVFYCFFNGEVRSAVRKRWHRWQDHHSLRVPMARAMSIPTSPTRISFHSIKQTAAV
T5 sequence (P24387 whole entry): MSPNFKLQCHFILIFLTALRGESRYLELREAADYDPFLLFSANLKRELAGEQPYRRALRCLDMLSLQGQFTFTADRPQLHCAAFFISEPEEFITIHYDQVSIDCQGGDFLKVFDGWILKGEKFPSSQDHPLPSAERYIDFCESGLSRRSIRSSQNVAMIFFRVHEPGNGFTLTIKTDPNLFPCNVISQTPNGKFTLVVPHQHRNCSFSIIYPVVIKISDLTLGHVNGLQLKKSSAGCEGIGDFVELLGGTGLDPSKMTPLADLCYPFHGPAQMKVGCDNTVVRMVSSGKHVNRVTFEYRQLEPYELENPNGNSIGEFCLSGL

[9] = inhibitors of firefly luciferase expression or activity, dose response, H4 neuroglioma cells, luminescence (AID 1990); format: functional, cell-based
[10] = Luminescence Cell-Based Dose Response HTS to Identify Inhibitors of 5'UTR Stem-Loop Driven Prion Protein mRNA Translation in H4 Neuroglioblastoma Cells. [Related pubchem assays: 1827 (Project Summary), 1813 (Primary HTS)]; format: functional
[11] = inhibitors of SNCA 5'UTR-driven reporter translation, confirmation, H4 neuroglioma cells, luminescence (AID 1988); format: functional, cell-based
INS1 = assay: beta cell apoptosis inhibitors, cytokine rescue, dose response, luminescence, retest (AID 449756); format: functional, cell-based; conditions: Rattus norvegicus;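 further: cell death triggered by IL-1 beta plus TNF-alpha plus IFN-gamma mixture; protective hits raise ATP signal compared with cytokine alone wells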
[12] = Shn3 3'UTR reporter inhibitors, dose response, cell-based, Clone20 osteoblasts, firefly luciferase, cherry-picked (AID 624132); format: functional;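 further: firefly luciferase luminescence from reporter carrying the Shn3 3'UTR in osteoblasts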
[13] = HepG2 cell cytotoxicity, dose response, cytotoxicity control for Shn3 inhibitor project, CellTiter-Glo, cherry-picked (AID 624134); format: functional, cell-based
[14] = control 3'UTR Renilla luciferase suppression, dose response, counter-screen for Shn3 inhibitor project, cell-based, Clone20-Shn3RL, cherry-picked (AID 624133); format: functional
[15] = Luminescence Cell-Based Dose Response HTS to Identify Activators of Luciferase Translation or Activity in H4 […] Cells. [Related pubchem assays: 1829 (Project Summary), 1814 (Primary HTS)]; format: functional
H4 = assay: Luminescence Cell-Based Dose Response HTS to Identify Activators of 5'UTR Stem-Loop Driven Prion Protein mRNA Translation in H4 Neuroglioblastoma Cells. [Related pubchem assays: 1829 (Project Summary), 1814 (Primary HTS)]; format: functional; conditions: Homo sapiens
[16] = growth suppression of PTEN-null colon cells, dose response, cell-based, HCT116 PTEN knockout (AID 1047); format: functional;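 further: HCT116 colon tumor cells with PTEN knocked out; cells exposed to compound for 60 hours before readout; potency for loss of cell viability measured by luminescence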
[17] = Luminescence Cell-Based Dose Retest to Confirm Inhibitors of Cancer Stem Cells. [Related pubchem assays (depositor defined):AID2717, AID2721]; format: functional; conditions: Homo sapiens

Compound: CC(=O)CSc1ncnc2c1cnn2-c1ccccc1
- CC50 [1]: 42.5 µM (active)

Compound: Nc1ncc(CN2CCCC2)c(-c2ccccc2O)n1
- GI50 (SN12K1): > 100 µM (inactive)
- GI50 (P388): > 100 µM (inactive)

Compound: Cc1nn(Cc2ccccc2Cl)c2sc(C(=O)NCCCn3ccnc3)cc12
- CC50 [2]: > 40 µM (active)

Compound: Cc1cc[n+](C2=C([N-]S(=O)(=O)c3cccs3)C(=O)c3ccccc3C2=O)cc1C
- EC50 [3]: > 300 µM (not active)
- EC50 [4]: > 300 µM (not active)
- EC50 [5]: > 60 µM (not active)
- EC50 [6]: > 30 µM (not active)
- AC50 [7]: 3.69 µM (active)
- EC50 (Protein RecA): 3.8 µM (active)

Compound: COc1ccc(CN2C[C@H](Cc3ccccc3)[C@@H](CC(=O)Nc3ccccc3)C2=O)cc1
- CC50 [1]: 22 µM (active)

Compound: CC(=O)Nc1cccc(-c2cc(-c3c(Cl)cccc3Cl)no2)c1
- CC50 [1]: 18.3 µM (active)

Compound: CO[C@H]1C[C@@H]2CC[C@@H](C)[C@@](O)(O2)C(=O)C(=O)N2CCCC[C@H]2C(=O)O[C@H]([C@H](C)C[C@@H]2CC[C@@H](O)[C@H](OC)C2)CC(=O)[C@H](C)C=C(C)[C@@H](O)[C@@H](OC)C(=O)[C@H](C)C[C@H](C)/C=C/C=C/C=C1C
- GI50 (SN12K1): 0.1 µM (active)
- GI50 (P388): 0.1 µM (active)

Compound: CCOC(=O)N1CCN(c2nc(N(c3ccccc3)c3ccccc3)nc(-n3ccnc3)n2)CC1
- CC50 [2]: > 40 µM (active)

Compound: CCOc1ccc(S(=O)(=O)N2CCN(C(=O)c3cc4c(s3)CCCC4)CC2)cc1
- CC50 [1]: 28.8 µM (active)
- CC50 [2]: > 40 µM (active)

Compound: Cc1ccc(NC(=O)CN(C)CC(=O)Nc2sc3c(c2C(N)=O)CCC3)cc1
- CC50 [1]: 28.1 µM (active)

Compound: CCCN1CCc2c(sc(NC(=O)c3ccc(S(=O)(=O)N4CCCC4)cc3)c2C(N)=O)C1
- EC50 [8]: 3.22 µM (active)

Compound: CCCn1c(N2CCN(Cc3ccc(Cl)cc3)CC2)nc2ccccc21
- CC50 [2]: > 40 µM (active)

Compound: COc1cc2nc(N3CCN(c4cc(C)ccc4C)CC3)nc(N)c2cc1OC
- EC50 [9]: > 120 µM (not active)
- EC50 [10]: > 120 µM (not active)
- EC50 [11]: > 120 µM (not active)
- EC50 [5]: 3.35 µM (active)
- CC50 [2]: 3.41 µM (active)
- EC50 [6]: 16.7 µM (active)
- AC50 (INS1): 7.37 µM (active)
- AC50 [12]: 5.44 µM (active)
- AC50 [13]: 10.2 µM (active)
- AC50 [14]: 12.7 µM (active)

Compound: O=C(Nc1ccc(N2CCOCC2)cc1)c1cc2c(s1)CCCCC2
- CC50 [1]: 23.8 µM (active)

Compound: O=C(Nc1ccccc1)c1cc2n(n1)C(C(F)(F)F)CC(C1CC1)N2 (stereo not drawn)
- EC50 [15]: 5.46 µM (active)
- EC50 (H4): > 120 µM (not active)

Compound: CCOC(=O)c1cnc(SCc2cccc(C)c2)nc1N
- CC50 [1]: 43.8 µM (active)

Compound: S=C(NCCc1ccc(Cl)cc1)Nc1ccc(Cl)cc1Cl
- EC50 [16]: 30.9 µM (active)

Compound: Cc1nn(CCc2nn[nH]n2)c2nc(-c3ccc(Br)cc3)cc(C(F)(F)F)c12
- CC50 [2]: > 40 µM (active)

Compound: NC(=O)c1cc(-c2csc(-c3cccnc3)n2)ccc1O
- CC50 [1]: 22.7 µM (active)

Compound: C/C(NC(=O)c1cccc(F)c1)=C1/C(=O)C[C@@H]2[C@H]1C2(C)C
- EC50 [15]: 29.7 µM (active)
- EC50 (H4): 17.8 µM (active)
- AC50 [17]: 1.24 µM (active)

Compound: Cc1cccnc1N=C(S)NCCc1ccccc1
- EC50 [15]: 21.7 µM (active)
- EC50 (H4): 12.9 µM (inconclusive)

Compound: CC(C)(C)N1CC2([N+](=O)[O-])CN(C(C)(C)C)CC([N+](=O)[O-])(C1)C2
- EC50 [8]: 4.6 µM (active)

— ChEMBL document CHEMBL1201862, “PubChem BioAssay data set” (2004)
